In patent US7348363B2, “Method of controlling zoological and aquatic plant growth” (priority 2000, dated 2008):

Assays:
[1] = system: Fish eggs; type: in vivo
[2] = system: Minnow larvae; experiment: Fathead minnow acute assay (fish assay); type: in vivo, Pimephales promelas
Description: Fathead minnows (Pimephales promelas) from in-house laboratory cultures were used for these tests. Animals were cultured in natural well water with hardness adjusted to >50 ppm (CaCO3) equivalents. Fish were spawned in a 20 gal spawning tank containing PVC tubing as refuges. Newly hatched larvae were transferred to a holding tank at densities of 50-100/l until use. Brine shrimp nauplii (Artemia) were used as food.
The tests were static renewal. The test durations were 48 hours and 96 hours. The temperature was 20° C.±1° C. Light quality was ambient laboratory illumination. Light intensity was 10-20 E/m^2/sec (50-100 ft-c). The photoperiod was 16 hours of light and 8 hours of dark. The test container was 400 ml. Renewal of test solutions occurred at 48 hours. The age of test organisms was 1-14 days, with a 24 hour age range. There were 10 organisms per container. There were 3 replicates per concentration of individual quinones in the ppm range. There are 5 test concentrations plus controls (initial range-finding tests performed on logarithmic series). All tests were conducted within 5 hours of dissolving the test compound. Animals were fed Artemia nauplii prior to the test and 2 hours prior to the 48 hour test solution renewal. […]
The test objectives are to determine LC50, LOEC and NOEC. […] Data are analyzed using Toxcalc 5.0.

[3] = system: T. isochrysis galbana; experiment: Phytoplankton assay, Isochrysis galbana; type: cell-based
Description: The dinoflagellate prorocentrum minimum was cultured at the Chesapeake Biological Laboratory culture facility from in-house stocks grown up as a 1 liter culture in sterilized 16 ppt salinity filtered water fortified with f/2 nutrient media. The culture was diluted to 5 liters with filtered estuarine water 16 ppt salinity prior to the experiments. The approximate starting cell density was 2×10^6 cells per ml.
(§1) Each 600 ml glass beaker containing 400 ml dinoflagellate culture was allowed to grow under continuous fluorescent light following the exposure treatments. At daily intervals, samples were taken for cell counting and microscopical examination, extraction of chlorophyll pigments with acetone and for direct in-vivo chlorophyll fluorescence determination.
100 ml of each dinoflagellate culture treatment in triplicate were filtered through a 25 mm GFF filter under gentle vacuum. The filters were folded and placed in polypropylene centrifuge tubes and exactly 4 ml of HPLC grade acetone added. The samples were sonicated with a probe (Virsonic 50) for approximately 2 minutes to disrupt cells after which they are allowed to extract at 4° C. overnight in a refrigerator. After centrifuging for 5 minutes, the supernatant was transferred to a quartz fluorometer cell and the fluorescence recorded using a Hitachi F4500 scanning fluorescence detector. Excitation was fixed at 436 nm with a 10 nm slit and the emission is recorded at 660 nm with a 10 nm slit. The photomultiplier is operated at 700 V. Authentic chlorophyll a and b (Sigman Chemicals) were dissolved in HPLC grade acetone to calibrate the spectrofluorometer. Three point calibrations were performed in triplicate on a daily basis and relative fluorescence response converted into units of ug/l.
In-vivo fluorimetry with the Hitachi F4500 involves suspending the algal cells and transferring an aliquot to a disposable polycarbonate cuvette and recording the emission spectra from 600-720 nm with excitation fixed at 436 nm with a 10 nm slit width.
Direct cell counts were made with a compound binocular microscope and a hemacytometer counting triplicate samples in 80 squares.
(§2) End-points for quinone toxicity include cell motility, inhibition of cell division, inhibition of chlorophyll synthesis and chloroplate bleaching.
(§3) Assays for other species of phytoplankton including Chlorella sp. and Isochrysis galbana followed the above outlined procedures.

[4] = system: Neochloris; experiment: Phytoplankton toxicity, Neochloris; type: cell-based
Description: as §1, §2, §3

[5] = system: E. affinis; experiment: Copepod assay (Eurytemora affinis); type: in vivo
Description: Cultures of Eurytemora affinis were continuously maintained in 15 seawater in a 8/16 hours light/dark regime fed every 48 hours on Isochrysis galbana. Toxicity bioassays are conducted on early instar naupliar larvae (chronic mortality/fecundity assay) or adults (acute LC50 assay).
Larvae were collected as follows. Cultures were filtered with a 200 m Nitex filter to separate the adults from earlier stages. Adults were then allowed to spawn for 48-72 hours in order to produce stage 1-3 naupliar larvae to be used for the assay. Assays were conducted on batches of 10 larvae per treatment (in triplicate). At 20° C., assays were continued for 12 days (shorter at higher temperatures). Endpoints were the percentage of F0 generation (present as adults) and total numbers of F1 generation (present as eggs or naupliar larvae). LC50 assays on adult copepods were conducted for 24 or 48 hours with percentage mortality as the end-point. All assays were conducted at 15 salinity on a 8 hour/16 hour light/dark regime.

[6] = system: Zebra mussel larvae; experiment: Zebra mussel larvae bioassay; type: in vivo, Dreissena polymorpha
Description: Zebra mussel broodstock were maintained in natural well water with calcium and magnesium adjusted to a hardness level equivalent to approximately 25 mg/l hardness.
(§4) At 20° C., larvae remain in the free-swimming state for 30-40 days prior to settlement. Bioassays using early larval stages of this species are variants on standard oyster embryo bioassays. Assays are conducted at the embryo, trochophore and D-hinge stage.
The assays examined the toxicity of various quinones to the earliest life history stages, namely embryo to trochophore stage (2-17 hours); trochophore stage (2-17 hours); trochophore to D-hinge stage (17-48 hours); and embryo to D-hinge stage (2-48 hours).
Approximately 25 adults from broodstock (held at 10-12° C.) were cleaned of debris and transferred to 1500 ml glass beakers containing approximately 800 ml of culture water. Water temperature was rapidly raised to 30-32° C. by the addition of warm water. Mussels treated this way usually spawn within 30 minutes. If no spawning occurred within this time, a slurry made from ripe gonads homogenized in culture water is added.
A successful spawn yielded >50,000 eggs/female. To check for successful fertilization, zygotes were transferred to a Sedgewick-Rafter cell for counting and examination under a binocular microscope. Fertilized eggs were seen to be actively dividing and reached the 8-cell stage between 2-3 hours following fertilization. A better than 70% fertilization rate is considered indicative of viable experimental material.
Assays were conducted on at least 500 embryos/larvae in each of 4 replicates. A range of 5 test concentrations (in the ppm range) plus controls were used. A density of 10 embryos per ml were used for embryo assays, and for D-hinge larvae 2-larvae/ml were used. The tests were static non-renewal. Any assay lasting 24 hours or longer received food (cultured Neochloris @5×10^4 cells ml-1) at 24 hour intervals.
Following counting and adjustment of densities, embryo assays were started as early as 2 hours following fertilization by inoculating a known number of embryos into the test media. Late stages were held in culture water until inoculation. Survivors were counted using Sedgewick-Rafter cells, with adjustments for control mortality using Abbott's formula. Probit and Dunnett's test are used to obtain the LD50, Lowest Observed Effect Concentration (LOEC) and No Observed Effect Concentration (NOEC) (Toxcalc 5.0).

[7] = system: Artemia salina; experiment: Artemia salina toxicity; type: in vivo
Description: (§5) The effectiveness and toxicity levels of the compounds were evaluated using active plant and animal species. The various compounds were added to the water at controlled rates and amounts.

[8] = system: Oyster larvae; experiment: Oyster larvae toxicity; type: in vivo
Description: as §5, §4

[9] = system: Banana snails (Bulimulis alternata); experiment: Banana snail bioassay on treated lettuce leaves; type: in vivo; conditions: for Avoidance of treated leaves: lettuce leaves sprayed with 5, 10 and 20 mg/l aqueous solution
Description: Banana snails (Bulimulis alternata) were obtained from a commercial supplier and were fed lettuce leaves until the start of the bioassay.
Ten snails were placed in covered 1 liter glass beakers, on approximately 50 cm^2 lettuce leaves which had been sprayed with a fine mist of an aqueous solution of 2,3-dimethoxy-5-methyl-1,4-benzoquinone at three concentrations: 5, 10 and 20 mg/l. The treated leaves were allowed to dry before exposure to the snails. 10 snails were placed on approximately 50 cm^2 of untreated lettuce leaf as a control. Treatments and controls were maintained at approximately 20° C. in the dark.
Others climbed up the walls of the beakers away from the leaves. […] In contrast, the control group of snails consumed more than 10% of the leaf surface area after 24 hours and continued to feed and had consumed about 20% of the leaf after 48 hours.

| SMILES | Toxicity Data: Toxic at (concentration) [3] | Toxicity Data: time to toxic effect at 5 ppm [5] | Toxicity Data: Toxic at (concentration) [7] | also measured |
| --- | --- | --- | --- | --- |
| CC1=CC(=O)c2c(O)cccc2C1=O [compound 1, 2-methyl-5-hydroxy-1,4-napthoquinone] | Toxic at 50 ppb | 5 ppm < 10 min | Toxic at 5 ppm | Toxicity Data: Kills & hatch prevention @ (concentration) [1]: prevention @ 1 ppm; Toxicity Data: Toxic at (concentration) [2]: Toxic at 1 ppm; Toxicity Data: Toxic at (concentration) [4]: Toxic at 500 ppm; Toxicity Data: Toxic at (concentration) ([6]; Zebra larvae): Toxic at 200 ppb |
| CC1=CC(=O)c2ccccc2C1=O [compound 2, 2-methyl-1,4-naphthalenedione (Vitamin K3)] | Toxic at 500 ppb | 5 ppm < 15 min | Toxic at 5 ppm | Toxicity Data: Kills & hatch prevention @ (concentration) [1]: prevention @ 1 ppm; Toxicity Data: Toxic at (concentration) ([6]; Zebra mussel larvae): Toxic at 500 ppm; Toxicity Data: toxic concentration [8]: 1 ppm |
| CC1(S(=O)(=O)[O-])CC(=O)c2ccccc2C1=O.[Na+] (stereo not shown) [compound 3, 2-methyl-2-sodium metabisulfite-1,4-naphthalenedione] | Toxic at 500 ppb | 5 ppm < 15 min | Toxic at 5 ppm | Toxicity Data: Kills & hatch prevention @ (concentration) [1]: prevention @ 1 ppm; Toxicity Data: Toxic at (concentration) ([6]; Zebra mussel larvae): Toxic at 1 ppm; Toxicity Data: toxic concentration [8]: 500 ppb |
| O=C1c2ccccc2Cc2ccccc21 [compound 4, Anthrone] | Toxic at 2 ppm |  |  |  |
| O=C1c2ccccc2C(=O)c2c1ccc(O)c2O [compound 5, 1,2-dihydroxyanthraquinone] | Toxic at 1 ppm |  | Toxic at 5 ppm | Toxicity Data: Toxic at (concentration) [5]: Toxic at 1 ppm |
| Cc1cc(O)c2c(c1)C(=O)c1cccc(O)c1C2=O [compound 6, 3-methyl-1,8-dihydroxyanthraquinone] | Toxic at 1 ppm |  |  | Toxicity Data: Toxic at (concentration) ([6]; Zebra mussel larvae): Toxic at 1 ppm |
| O=C(O)c1ccc2c(c1)C(=O)c1ccccc1C2=O [compound 7, anthraquinone-2-carboxylic acid] | Toxic at 1 ppm | 5 ppm < 5 hours |  |  |
| O=C1c2ccccc2C(=O)c2c(Cl)cccc21 [compound 8, 1-chloroanthraquinone] | Toxic at 500 ppb | 5 ppm < 5 hours |  | Toxicity Data: Toxic at (concentration) [4]: Toxic at 500 ppb |
| Cc1ccc2c(c1)C(=O)c1ccccc1C2=O [compound 9, 2-methyl-anthraquinone] | Toxic at 500 ppb | 5 ppm < 45 min | Toxic at 5 ppm | Toxicity Data: Toxic at (concentration) [4]: Toxic 1 ppm; Toxicity Data: Toxic at (concentration) ([6]; Zebra mussel larvae): Toxic at 200 ppm |
| O=C1C=CC(=O)c2ccccc21 [compound 10, 1,4-naphthalenedione] | Toxic at 1 ppm | 5 ppm < 10 min |  | Toxicity Data: toxic concentration [8]: Toxic at 5 ppm |
| O=C1c2ccccc2C(=O)c2ccccc21 [compound 11, anthraquinone] |  | 5 ppm < 4 hours |  |  |
| O=C1C=CC(=O)C=C1 [compound 12, 1,4-benzoquinone] | Toxic at 500 ppb |  |  | Toxicity Data: Control hatch at (concentration) [1]: at 1 ppm |
| CC1=CC(=O)C=CC1=O [compound 13, methyl-1,4-benzoquinone (toluquinone)] | Toxic at 500 ppb |  |  |  |
| COC1=C(OC)C(=O)C(C)=CC1=O [compound 14, 2,3-methoxy-5-methyl-1,4-benzoquinone] | Toxic at 5 ppm |  |  | Avoidance of treated leaves ([9]; after 48 hours): avoidance behavior was again observed; Avoidance of treated leaves ([9]; all treatments, 24 hours): significant avoidance relative to control; Feeding activity ([9]; several snails of the treatment group, leaves completely intact): no feeding activity at all |
